# Data as given in ChEMBL document CHEMBL6074711, “Design, Synthesis, and Activity Evaluation of C-23-Modified 5-O-Mycaminosyltylonolide Derivatives” (ACS Med Chem Lett, 2024).
# Experiments:
# [1] = tested on: Staphylococcus aureus; experiment: Antibacterial activity against Staphylococcus aureus ATCC25923 incubated for 20 to 24 hrs; format: functional; conditions: time 20-24 hrs
# [2] = tested on: Staphylococcus aureus; experiment: Ratio of MBC to MIC for Staphylococcus aureus ATCC25923 incubated for 20 to 24 hrs; format: functional; conditions: time 20-24 hrs
# [3] = tested on: Stenotrophomonas maltophilia; experiment: Bactericidal activity against Stenotrophomonas maltophilia ATCC17808 incubated for 20 to 24 hrs; format: functional; conditions: time 20-24 hrs
# [4] = tested on: Stenotrophomonas maltophilia; experiment: Antibacterial activity against Stenotrophomonas maltophilia ATCC17808 incubated for 16 to 20 hrs by broth microdilution method; format: functional; conditions: time 16-20 hrs
# [5] = tested on: Staphylococcus aureus; experiment: Antibacterial activity against drug-resistant Staphylococcus aureus clinical isolate M20 incubated for 16 to 20 hrs by broth microdilution method; format: functional; conditions: time 16-20 hrs
# [6] = tested on: Stenotrophomonas maltophilia; experiment: Ratio of MBC to MIC for Stenotrophomonas maltophilia ATCC17808 incubated for 20 to 24 hrs; format: functional; conditions: time 20-24 hrs
# [7] = tested on: Stenotrophomonas maltophilia; experiment: Antibacterial activity against Stenotrophomonas maltophilia ATCC17808 incubated for 20 to 24 hrs; format: functional; conditions: time 20-24 hrs
# [8] = tested on: Staphylococcus aureus; experiment: Antibacterial activity against Staphylococcus aureus ATCC25923 incubated for 16 to 20 hrs by broth microdilution method; format: functional; conditions: time 16-20 hrs
# [9] = tested on: Enterococcus faecalis; experiment: Bactericidal activity against Enterococcus faecalis ATCC29212 incubated for 20 to 24 hrs; format: functional; conditions: time 20-24 hrs
# [10] = tested on: Escherichia coli; experiment: Antibacterial activity against drug-resistant Escherichia coli clinical isolate 1333 incubated for 16 to 20 hrs by broth microdilution method; format: functional; conditions: time 16-20 hrs
# [11] = tested on: Escherichia coli; experiment: Ratio of MBC to MIC for Escherichia coli ATCC25922 incubated for 20 to 24 hrs; format: functional; conditions: time 20-24 hrs
# [12] = tested on: Escherichia coli; experiment: Antibacterial activity against Escherichia coli ATCC25922 incubated for 20 to 24 hrs; format: functional; conditions: time 20-24 hrs
# [13] = tested on: Escherichia coli; experiment: Bactericidal activity against Escherichia coli ATCC25922 incubated for 20 to 24 hrs; format: functional; conditions: time 20-24 hrs
# [14] = tested on: Escherichia coli; experiment: Antibacterial activity against Escherichia coli ATCC25922 incubated for 16 to 20 hrs by broth microdilution method; format: functional; conditions: time 16-20 hrs
# [15] = tested on: Enterococcus faecalis; experiment: Antibacterial activity against Enterococcus faecalis ATCC29212 incubated for 20 to 24 hrs; format: functional; conditions: time 20-24 hrs
# [16] = tested on: Escherichia coli; experiment: Antibacterial activity against drug-resistant Escherichia coli clinical isolate 1322 incubated for 16 to 20 hrs by broth microdilution method; format: functional; conditions: time 16-20 hrs
# [17] = tested on: Enterococcus faecalis; experiment: Antibacterial activity against Enterococcus faecalis ATCC29212 incubated for 16 to 20 hrs by broth microdilution method; format: functional; conditions: time 16-20 hrs
# [18] = tested on: Staphylococcus aureus; experiment: Bactericidal activity against Staphylococcus aureus ATCC25923 incubated for 20 to 24 hrs; format: functional; conditions: time 20-24 hrs
# [19] = tested on: Enterococcus faecalis; experiment: Ratio of MBC to MIC for Enterococcus faecalis ATCC29212 incubated for 20 to 24 hrs; format: functional; conditions: time 20-24 hrs
# [20] = tested on: Escherichia coli; experiment: Antibacterial activity against Escherichia coli ATCC25922 under 10^5 CFU/ml of bacterial inoculum culture by absorbance based assay; format: functional
# [21] = Selectivity index, ratio of IC50 for mouse HT-22 cells to MIC for methicillin-resistant Staphylococcus aureus; format: toxicity, cell-based
# [22] = Cytotoxicity against mouse HT-22 cells incubated for 72 hrs by MTT assay; format: toxicity, cell-based
# [23] = tested on: Escherichia coli; experiment: Antibacterial activity against Escherichia coli ATCC25922 under 10^7 CFU/ml of bacterial inoculum culture by absorbance based assay; format: functional
# [24] = tested on: Staphylococcus aureus; experiment: Antibacterial activity against Staphylococcus aureus ATCC25923 under 10^7 CFU/ml of bacterial inoculum culture by absorbance based assay; format: functional
# [25] = tested on: Escherichia coli; experiment: Antibacterial activity against Escherichia coli ATCC25922 under 10^6 CFU/ml of bacterial inoculum culture by absorbance based assay; format: functional
# [26] = tested on: Escherichia coli; experiment: Antibacterial activity against Escherichia coli ATCC25922 under 10^4 CFU/ml of bacterial inoculum culture by absorbance based assay; format: functional
# [27] = tested on: Staphylococcus aureus; experiment: Antibacterial activity against Staphylococcus aureus ATCC25923 under 10^5 CFU/ml of bacterial inoculum culture by absorbance based assay; format: functional
# [28] = tested on: Staphylococcus aureus; experiment: Antibacterial activity against Staphylococcus aureus ATCC25923 under 10^6 CFU/ml of bacterial inoculum culture by absorbance based assay; format: functional
# [29] = tested on: Staphylococcus aureus; experiment: Antibacterial activity against Staphylococcus aureus ATCC25923 under 10^4 CFU/ml of bacterial inoculum culture by absorbance based assay; format: functional
# [30] = tested on: Escherichia coli; experiment: Induction of resistance development in Escherichia coli ATCC25922 treated daily with continuous passaging measured after 10 passages by absorbance based assay; format: functional; conditions: ATCC25922, 240 h, time 10 day
# [31] = tested on: Escherichia coli; experiment: Induction of resistance development in Escherichia coli ATCC25922 treated daily with continuous passaging measured after 14 passages by absorbance based assay; format: functional; conditions: ATCC25922, 336 h, time 14 day
# [32] = tested on: Escherichia coli; experiment: Induction of resistance development in Escherichia coli ATCC25922 treated daily with continuous passaging measured after 5 passages by absorbance based assay; format: functional; conditions: ATCC25922, 120 h, time 5 day
# [33] = tested on: Staphylococcus aureus; experiment: Induction of resistance development in Staphylococcus aureus ATCC25923 treated daily with continuous passaging measured after 16 passages by absorbance based assay; format: functional; conditions: ATCC25923, 384 h, time 16 day
# [34] = tested on: Staphylococcus aureus; experiment: Induction of resistance development in Staphylococcus aureus ATCC25923 treated daily with continuous passaging measured after 13 passages by absorbance based assay; format: functional; conditions: ATCC25923, 312 h, time 13 day
Structure (SMILES),MIC [1] [µg/mL],MBC [3] [µg/mL],MIC [4] [µg/mL],MIC [5] [µg/mL],Ratio [6],MIC [7] [µg/mL],MIC [8] [µg/mL],MBC [9] [µg/mL],MIC [10] [µg/mL],MIC [12] [µg/mL],MIC [14] [µg/mL],MIC [15] [µg/mL],MIC [16] [µg/mL],MIC [17] [µg/mL],MBC [18] [µg/mL],Ratio [19],MIC [20] [µg/mL],MIC [23] [µg/mL],MIC [25] [µg/mL],MIC [26] [µg/mL],other results
CC[C@H]1OC(=O)C[C@@H](O)[C@H](C)[C@@H](O[C@@H]2O[C@H](C)[C@@H](O)[C@H](N(C)C)[C@H]2O)[C@@H](CCNCc2cn(-c3cnc4ccccc4c3)nn2)C[C@@H](C)C(=O)/C=C/C(C)=C/[C@@H]1CNCc1ccc(C)cc1,0.5,4,1,0.5,2,2,0.5,8,4,0.5,1,1,1,1,1,2,,,,,Ratio [2]: 2; Ratio [11]: 2; MBC [13]: 1 µg/mL
CC[C@H]1OC(=O)C[C@@H](O)[C@H](C)[C@@H](O[C@@H]2O[C@H](C)[C@@H](O)[C@H](N(C)C)[C@H]2O)[C@@H](CCN(C)Cc2cn(-c3cnc4ccccc4c3)nn2)C[C@@H](C)C(=O)/C=C/C(C)=C/[C@@H]1CN(C)Cc1ccccc1,16,16,1,0.5,4,4,0.5,8,2,1,1,4,1,1,> 32,2,,,,,Ratio [11]: 4; MBC [13]: 4 µg/mL
CC[C@H]1OC(=O)C[C@@H](O)[C@H](C)[C@@H](O[C@@H]2O[C@H](C)[C@@H](O)[C@H](N(C)C)[C@H]2O)[C@@H](CCN2CCCCC2)C[C@@H](C)C(=O)/C=C/C(C)=C/[C@@H]1CN1CCCCC1 [TILDIPIROSIN],0.5,16,1,32,2,8,16,16,16,32,1,8,4,16,4,2,> 32,> 32,> 32,> 32,selectivity ratio [21]: 3.56; Ratio [2]: 8; IC50 at 72 h [22]: 114 µg/mL; MIC [24]: 1 µg/mL; MIC [27]: 0.5 µg/mL; MIC [28]: 1 µg/mL; MIC [29]: 0.5 µg/mL
CC[C@H]1OC(=O)C[C@@H](O)[C@H](C)[C@@H](O[C@@H]2O[C@H](C)[C@@H](O[C@H]3C[C@@](C)(O)[C@@H](O)[C@H](C)O3)[C@H](N(C)C)[C@H]2O)[C@@H](CC=O)C[C@@H](C)C(=O)/C=C/C(C)=C/[C@@H]1CO[C@@H]1O[C@H](C)[C@@H](O)[C@@H](OC)[C@H]1OC [TYLOSIN],,,> 32,0.5,,,0.5,,> 32,,> 32,,> 32,0.5,,,1,2,2,1,MIC [24]: 4 µg/mL; MIC [27]: 2 µg/mL; MIC [28]: 4 µg/mL; MIC [29]: 1 µg/mL
CS(=O)(=O)c1ccc([C@@H](O)[C@@H](CF)NC(=O)C(Cl)Cl)cc1 [FLORFENICOL],,,,,,,,,,,,,,,,,,,,,MIC [30]: 16 µg/mL; MIC [31]: 32 µg/mL; MIC [32]: 8 µg/mL
CC(=O)NC[C@H]1CN(c2ccc(N3CCOCC3)c(F)c2)C(=O)O1 [LINEZOLID],,,> 32,,,,,,,,> 32,,,,,,< 0.063,< 0.063,< 0.063,< 0.063,MIC [33]: 16 µg/mL; MIC [34]: 8 µg/mL
